# Measurements from ChEMBL document CHEMBL1128090, “Substituted 2,4-diaminoquinazolines and 2,4-diamino-8-alkylpurines as antagonists of the neurokinin-2 (NK2) receptor” (Bioorg Med Chem Lett, 1995).
# Experiments:
# [1] = target: T1, Substance-K receptor (Mesocricetus auratus, UniProt P51144); experiment: Inhibition constant for displacement of [3H]NKA from Tachykinin receptor 2 found in hamster urinary bladder membrane (HUBM); type: cell membranes
# T1 sequence (P51144 whole entry): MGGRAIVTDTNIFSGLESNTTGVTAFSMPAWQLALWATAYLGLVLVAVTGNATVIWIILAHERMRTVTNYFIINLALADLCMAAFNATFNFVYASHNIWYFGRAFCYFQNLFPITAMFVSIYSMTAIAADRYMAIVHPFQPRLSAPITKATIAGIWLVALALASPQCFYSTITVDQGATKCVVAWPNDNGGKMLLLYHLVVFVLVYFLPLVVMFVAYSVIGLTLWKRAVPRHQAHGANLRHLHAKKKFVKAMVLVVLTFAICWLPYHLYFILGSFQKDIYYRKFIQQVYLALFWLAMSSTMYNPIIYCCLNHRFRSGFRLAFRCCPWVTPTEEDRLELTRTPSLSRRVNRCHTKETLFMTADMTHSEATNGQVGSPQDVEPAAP
# [2] = target: T2, Substance-K receptor (Homo sapiens, UniProt P21452); experiment: Displacement of [3H]NKA from the cloned human Tachykinin receptor 2 which has been expressed in baculovirus infected insect sf21 cells
# T2 sequence (P21452 whole entry): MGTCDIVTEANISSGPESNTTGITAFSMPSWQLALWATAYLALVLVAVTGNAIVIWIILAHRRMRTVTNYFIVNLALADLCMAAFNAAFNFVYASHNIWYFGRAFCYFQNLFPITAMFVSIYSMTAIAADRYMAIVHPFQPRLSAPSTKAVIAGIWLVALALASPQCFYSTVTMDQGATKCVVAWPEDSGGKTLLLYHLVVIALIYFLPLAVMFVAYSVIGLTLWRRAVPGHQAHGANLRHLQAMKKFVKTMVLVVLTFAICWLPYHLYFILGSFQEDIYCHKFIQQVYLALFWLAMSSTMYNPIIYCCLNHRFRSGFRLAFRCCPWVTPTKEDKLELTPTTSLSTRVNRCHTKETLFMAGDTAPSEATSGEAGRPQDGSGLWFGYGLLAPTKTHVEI
# [3] = species on record: Cavia porcellus; experiment: Compound was tested for the inhibition of contraction induced by [b-Ala8-NKA(4-10)] in guinea pig trachea; type: functional
# [4] = target: T2, Substance-K receptor; experiment: Inhibition constant for displacement of [3H]NKA from the cloned human NK2 receptor
# [5] = target: T2, Substance-K receptor; experiment: Inhibition constant for displacement of [3H]-NKA from the cloned human NK2 receptor which has been expressed in baculovirus infected insect sf21 cells
Ki [1] [µM],Ki [2] [µM],Compound,also measured
–,2.1,CC(C)c1nc2nc(N3CCC(C)(O)CC3)nc(Nc3ccc(Cl)cc3)c2[nH]1,Kb [3]: 10.7 µM
–,5.58,CC(C)c1nc2[nH]c(NCc3ccccc3)nc(Nc3ccc(Cl)cc3)c-2n1,–
–,2.55,CC(C)c1nc2[nH]c(NCCCN)nc(Nc3ccc(Cl)cc3)c-2n1,–
6.6,–,Cc1nc2[nH]c(N3CCOCC3)nc(Nc3ccc(Cl)cc3)c-2n1,Ki [4]: 17.5 µM
–,4.36,CC(C)c1nc2[nH]c(N3CCC4(CC3)OCCO4)nc(Nc3ccc(Cl)cc3)c-2n1,–
–,5.89,CC(C)c1nc2[nH]c(N3CCC(=O)CC3)nc(Nc3ccc(Cl)cc3)c-2n1,–
–,3.44,COC1(OC)CCN(c2nc(Nc3ccc(Cl)cc3)c3[nH]c(C(C)C)nc3n2)CC1,–
0.067,–,CC(C)c1nc2[nH]c(N3CCOCC3)nc(Nc3ccc(Cl)cc3)c-2n1,Ki [5]: 3.07 µM; Kb [3]: 70.8 µM

# The remaining lines, values behind:
Compound,Ki [1] [µM],Ki [2] [µM],also measured
Clc1ccc(Nc2nc(N3CCOCC3)nc3ccccc23)cc1,29.5,–,–
CCCc1nc2nc(N3CCOCC3)nc(Nc3ccc(Cl)cc3)c2[nH]1,0.054,–,Ki [4]: 2.34 µM
CC(C)c1nc2nc(N3CCOCC3)nc(Nc3ccc(C(F)(F)F)cc3)c2[nH]1,–,2.85,Kb [3]: > 100 µM
CC(C)c1nc2nc(N3CCC(O)CC3)nc(Nc3ccc(C(F)(F)F)cc3)c2[nH]1,–,1.77,Kb [3]: > 100 µM
CCCNc1nc(Nc2ccc(Cl)cc2)c2[nH]c(C(C)C)nc2n1,–,3.49,–
O=C(O)c1ccc2c(Nc3ccc(Cl)cc3)nc(N3CCOCC3)nc2c1,20.3,–,–
COC(=O)c1ccc2c(Nc3ccc(Cl)cc3)nc(N3CCOCC3)nc2c1,0.82,–,–
CCc1nc2nc(N3CCOCC3)nc(Nc3ccc(Cl)cc3)c2[nH]1,0.52,–,Ki [4]: 6.94 µM
CC(C)NC(=O)c1ccc2c(Nc3ccc(Cl)cc3)nc(N3CCOCC3)nc2c1,58.7,–,–
CC(C)N1Cc2c(Nc3ccc(Cl)cc3)nc(N3CCOCC3)nc2C1=O,0.015,–,Ki [4]: 0.55 µM
CC(C)c1nc2nc(N3CCC(O)(c4ccccc4)CC3)nc(Nc3ccc(Cl)cc3)c2[nH]1,–,2.24,Kb [3]: 100 µM
